{"source": "paper PMC9975698", "about": "“Hyperoside alleviates toxicity of β-amyloid via endoplasmic reticulum-mitochondrial calcium signal transduction cascade in APP/PS1 double transgenic Alzheimer's disease mice” (Redox Biology, 2023)", "key": {"APP and APP-β": {"system": "APP and APP-β", "assay": "Western blot of APP and APP-β in HT22 cells", "type": "cell-based", "protocol": "After HYP treatment, the cells were lysed with RIPA. Protein concentrations were determined by Bio-Rad protein assay (Bio-Rad Laboratories, CA, USA). After electrophoretic separation, the gels were blotted and stained with primary antibodies. Binding of antibodies was visualized with peroxidase-coupled secondary antibodies using ECL Western Blotting detection reagents (Invitrogen, Scotland, UK). Band intensities were quantified using ImageJ software. Data were obtained from three independent experiments."}, "APP/PS1 mice [1]": {"system": "APP/PS1 mice", "assay": "GFAP immunofluorescent staining of brain tissues", "type": "in vivo", "conditions": "cortex and hippocampus, HYP nasal, 8 weeks", "protocol": "All animal care and experimental procedures were performed in accordance with the “Institutional Animal Care and User Committee Guidelines” of the Macau University of Science and Technology. APP/PSEN1 (APP/PS1) mice (N000175) were purchased from the Nanjing Institute of Biomedical Sciences, Nanjing University, China, weighing 25 ± 5 g. The animals were housed in a temperature-controlled room with a 12 h light/dark cycle and given ad libitum food and water. Male mice were randomly divided into the following 6 experimental groups. (a) wild-type group (n = 6), (b) APP/PS1 group (n = 6), (c) HYP (20 mg/kg group) (n = 7), (d) HYP (40 mg/kg) group (n = 8), (e) HYP (80 mg/kg) group (n = 8) and (f) memantine (MEM) (10 mg/kg) positive control group (n = 8). HYP was dissolved in the solvent containing 10% DMSO, 40% PEG300 and 5% Tween-80 in PBS, and administrated via nasal injection for every 3 days with a volume of 0.5 μL/g of body weight for 8 consecutive weeks. Brain tissues from all treatment groups were fixed and embedded in paraffin for microtome sectioning and immunofluorescence staining. […] The coverslips were then mounted with FluorSave™ mounting media (Calbiochem, San Diego, CA, USA) for fluorescence imaging. […]"}, "APP/PS1 mice [2]": {"system": "APP/PS1 mice", "assay": "Western blot of APP/GFAP/APP-β/BACE1 in cortex and hippocampus lysates", "type": "in vivo", "protocol": "After HYP treatment, the cells were lysed with RIPA. Protein concentrations were determined by Bio-Rad protein assay (Bio-Rad Laboratories, CA, USA). After electrophoretic separation, the gels were blotted and stained with primary antibodies. Binding of antibodies was visualized with peroxidase-coupled secondary antibodies using ECL Western Blotting detection reagents (Invitrogen, Scotland, UK). Band intensities were quantified using ImageJ software. Data were obtained from three independent experiments. All animal care and experimental procedures were performed in accordance with the “Institutional Animal Care and User Committee Guidelines” of the Macau University of Science and Technology. APP/PSEN1 (APP/PS1) mice (N000175) were purchased from the Nanjing Institute of Biomedical Sciences, Nanjing University, China, weighing 25 ± 5 g. The animals were housed in a temperature-controlled room with a 12 h light/dark cycle and given ad libitum food and water. Male mice were randomly divided into the following 6 experimental groups. (a) wild-type group (n = 6), (b) APP/PS1 group (n = 6), (c) HYP (20 mg/kg group) (n = 7), (d) HYP (40 mg/kg) group (n = 8), (e) HYP (80 mg/kg) group (n = 8) and (f) memantine (MEM) (10 mg/kg) positive control group (n = 8). […]"}, "APP/PS1 mice [3]": {"system": "APP/PS1 mice", "assay": "HE staining of hippocampus", "type": "in vivo", "conditions": "hippocampus CA1, CA3, DG, nasal HYP", "protocol": "All animal care and experimental procedures were performed in accordance with the “Institutional Animal Care and User Committee Guidelines” of the Macau University of Science and Technology. APP/PSEN1 (APP/PS1) mice (N000175) were purchased from the Nanjing Institute of Biomedical Sciences, Nanjing University, China, weighing 25 ± 5 g. The animals were housed in a temperature-controlled room with a 12 h light/dark cycle and given ad libitum food and water. Male mice were randomly divided into the following 6 experimental groups. (a) wild-type group (n = 6), (b) APP/PS1 group (n = 6), (c) HYP (20 mg/kg group) (n = 7), (d) HYP (40 mg/kg) group (n = 8), (e) HYP (80 mg/kg) group (n = 8) and (f) memantine (MEM) (10 mg/kg) positive control group (n = 8). HYP was dissolved in the solvent containing 10% DMSO, 40% PEG300 and 5% Tween-80 in PBS, and administrated via nasal injection for every 3 days with a volume of 0.5 μL/g of body weight for 8 consecutive weeks. Pathological assessment on the cornuammonis region 1 (CA1), cornuammonis region 3 (CA3) and dentate gyrus region (DG) regions of the mouse hippocampus was done by HE staining. Brain sections were dehydrated with 70%, 80% and 90% alcohol respectively. […]"}, "HT22 cells": {"system": "HT22 cells", "assay": "Cytotoxicity (MTT) assay", "type": "cell-based", "protocol": "Cytotoxicity was assessed using the MTT (5.0 mg/mL) assay. 4 × 10^3 HT22 cells per well were seeded in 96-well plates. After overnight incubation, cells were treated with Aβ aggregates (30 μM) for 48 h with or without the presence of HYP (20–80 μM). Cells were treated with DMSO as a control. Subsequently, MTT (10 μL) was added to each well for 4 h, followed by the addition of 100 μL of lysis buffer (10% SDS in 0.01 mol/L hydrochloric acid) and overnight incubation. The absorbance was measured at 570 nm the next day. The formula was calculated as a percentage of cell viability: Cell viability (%) = A (treatded) / A (control) × 100%. Data were obtained from three independent experiments in triplicate."}}}
{"compound": "O=c1c(O[C@@H]2O[C@H](CO)[C@H](O)[C@H](O)[C@H]2O)c(-c2ccc(O)c(O)c2)oc2cc(O)cc(O)c12", "note": "[HYP, Quercetin-3-O-β-D-galactopyranoside]", "values": [{"measurement": "protein level of APP and APP-β", "setting": "APP and APP-β", "result": "reduced the protein level of both APP and APP-β"}, {"measurement": "level of GFAP", "setting": "APP/PS1 mice [1]", "result": "decreased the level of GFAP in both the cortex and hippocampus"}, {"measurement": "level of BACE1 and APP-β proteins", "setting": "APP/PS1 mice [2]", "result": "reduced the level of APP hydrolysis pathway-associated proteins such as BACE1 and APP-β"}, {"measurement": "neuronal cell morphology (HE staining)", "setting": "APP/PS1 mice [3]", "result": "neuronal cell morphological changes were minimal"}, {"measurement": "cellular toxicity of HYP alone (MTT)", "setting": "HT22 cells; HYP 20–80 μM", "result": "no obvious cellular toxicity was observed"}, {"measurement": "cell viability with aggregated Aβ co-treatment (MTT and flow cytometry)", "setting": "HT22 cells; HYP 20–80 μM + aggregated Aβ 30 μM", "result": "increased the cell viability in a dose-dependent manner"}]}
